According to paper PMC9283668, “Natural and commercial antibiotic comparison with drugs modeling cell integrity cell stability of Bio-Kinetics changes under morphological topographies cells with lower toxicological characteristics for multidrug resistances problem” (Saudi Journal of Biological Sciences, 2022):

Tests used:
[1] = Experimental: Pharmacokinetic compartment modelling was used on these novel substances, which had been derived from A. vasica and C. procera. The half-life was determined by the regions under plasma concentration, while the peak plasma concentration as well as timing acquired immediately from the dataset obtained in this investigation. Medicinal phyto-constituents were incorporated to the compartment model and an automatic calculating software tool was coupled with win-Nonlin ® Software to these bioactive chemicals.
Selected compounds were administered using a one-compartment oral dosage model, extract the one-compartment model parameters, the non-compartment model Parameters are necessary. The equations for non-compartment and one-compartment variables are given below respectively. • (1) w = (AUC, T max, T1/2) • (2) β = (ka, ke, V). • (3) β = (ke, V) • (4) CL po = V × Ke
If only oral clearance is required, CL po should be used instead of AUC. When it comes to IV dosage, however, just w = (AUC, T1/2) is required to claim the single dozes changes in (3).
Plasma concertation either orally or via an injection of selected compounds The natural antibiotic compounds by being taken into cells and either bacterial changes and it formed a tragedy to cells as expressed complete changes used in the formation of ATP in cells. The pharmacokinetic description of antibiotic compounds are shown in below equation and represented mathematically by equations (1), (2), (3), (4).(1) dSdt=rS,end+rS,ex-rS,elim (2) rS,end=f(t,S,I,G,E,F,A,KS,end) (3) rS,ex=g(t,MS) (4) rS,elim=h(t,S,I,E,KS,elim)

[2] = format: in vitro ADME
Experimental: Pharmacokinetic compartment modelling was used on these novel substances, which had been derived from A. […]. procera. The half-life was determined by the regions under plasma concentration, while the peak plasma concentration as well as timing acquired immediately from the dataset obtained in this investigation. Medicinal phyto-constituents were incorporated to the compartment model and an automatic calculating software tool was coupled with win-Nonlin ® Software to these bioactive chemicals.

Molecule	T max (Mean) [1]	AUC, area under plasma concentration (Mean) [1]	Absorption capacity (Mean) [2]	Half life (Mean) [1]
Myristyl diglucoside	0.2			
CCCCC/C=C\C/C=C\CCCCCCCC(=O)O[C@H]1CC[C@@]2(C)C(=CC[C@H]3[C@@H]4CC[C@H]([C@H](C)CC[C@@H](CC)C(C)C)[C@@]4(C)CC[C@@H]32)C1 [B-Sitosteryl linoleate]		0.1		
S-allylcysteine acid		0.1	2.1	2.1
